Test results from US10750742B2, “Pesticidally active pyrazole derivatives” (SYNGENTA PARTICIPATIONS AG, priority 2015, dated 2020).

Legend:
Type in all cases: in vivo
Myzus persicae [1] = assay: Myzus persicae (green peach aphid), sunflower leaf disc spray test; details: foliar, 144 h, application rate 200 ppm, mixed ages, 6 DAT, read-out: mortality
Method: (§1) Myzus persicae (Green Peach Aphid):
Sunflower leaf discs were placed on agar in a 24-well microtiter plate and sprayed with test solutions at an application rate of 200 ppm. After drying, the leaf discs were infested with an aphid population of mixed ages. After an incubation period of 6 DAT, samples were checked for mortality. The following compounds gave at least 80% mortality of Myzus persicae: compounds 1,2, 3, 4, 5, 6, 11, 12, 15, 17, 18, 19, 20, 23, 24, 25, 26, 27, 30, 32, 33, 34 35, 41, 43, 44, 47, 50, 55, 58, 59, 60, 61, 62, 63, 64, 65 and 66.

Plutella xylostella = Plutella xylostella (diamond back moth), artificial diet test; details: 120 h, application rate 200 ppm, L2 larvae, 5 days after infestation, read-out: control (mortality and growth inhibition)
Method: Plutella xylostella (Diamond Back Moth):
(§2) 24-well microtiter plates with artificial diet were treated with aqueous test solutions prepared from 10′000 ppm DMSO stock solutions by pipetting. After drying, the plates were infested with L2 larvae (10 to 15 per well). The samples were assessed for mortality and growth inhibition in comparison to untreated samples 5 days after infestation.

Euschistus heros = Euschistus heros (neotropical brown stink bug), soybean leaf test; details: 120 h, application rate 200 ppm, N2 nymphs, 5 days after infestation, read-out: effect in at least one of the two categories (mortality or growth inhibition)
Method: Euschistus heros (Neotropical Brown Stink Bug):
Soybean leaves on agar in 24-well microtiter plates were sprayed with aqueous test solutions prepared from 10′000 ppm DMSO stock solutions. After drying the leaves were infested with N2 nymphs. The samples were assessed for mortality and growth inhibition in comparison to untreated samples 5 days after infestation.

Diabrotica balteata = Diabrotica balteata (corn root worm), maize sprout test; details: 96 h, application rate 200 ppm, L2 larvae, 4 days after infestation, read-out: control (mortality and growth inhibition)
Method: Diabrotica balteata, (Corn Root Worm)
as §2, with “Maize sprouts, placed on an agar layer in 24-well” for “24-well”, “plates” for “plates with artificial diet”, “spraying.” for “pipetting.”, “(6” for “(10”, “10” for “15”, “4” for “5”

Myzus persicae [2] = assay: Myzus persicae (green peach aphid), sucrose solution / Parafilm test; details: 120 h, test rate of 12 ppm, sucrose solution, 5 days after infestation, read-out: mortality
Text: as §1
Test compounds were applied by pipette into 24 well plates and mixed with Sucrose solution. Application rate: 12.5 ppm. The plates were closed with a stretched parafilm. A plastic stencil with 24 holes is placed onto the plate and infested pea seedlings were placed directly on the Parafilm. The infested plate is closed with a gel blotting paper and another plastic stencil and then turned upside down. 5 days after infestation the samples were checked on mortality.

Spodoptera littoralis = Spodoptera littoralis (Egyptian cotton leaf worm), cotton leaf disc spray test; details: foliar, 72 h, application rate 200 ppm, L1 larvae, 3 days after infestation, read-out: control (at least one of mortality, anti-feedant effect, growth inhibition)
Method: Spodoptera littoralis (Egyptian Cotton Leaf Worm)
Cotton leaf discs were placed on agar in 24-well microtiter plates and sprayed with aqueous test solutions prepared from 10′000 ppm DMSO stock solutions. After drying the leaf discs were infested with five L1 larvae. The samples were assessed for mortality, anti-feedant effect, and growth inhibition in comparison to untreated samples 3 days after infestation. Control of Spodoptera littoralis by a test sample is when at least one of mortality, anti-feedant effect, and growth inhibition is higher than the untreated sample.

Tetranychus urticae = Tetranychus urticae (two-spotted spider mite), bean leaf disc test; details: foliar, 192 h, application rate 200 ppm, 8 days after infestation, read-out: control (mortality on mixed population, mobile stages)
Method: Tetranychus urticae (Two-Spotted Spider Mite):
Bean leaf discs on agar in 24-well microtiter plates were sprayed with aqueous test solutions prepared from 10′000 ppm DMSO stock solutions. After drying the leaf discs were infested with a mite population of mixed ages. The samples were assessed for mortality on mixed population (mobile stages) 8 days after infestation.

Thrips tabaci = Thrips tabaci (onion thrips), sunflower leaf disc test; details: foliar, 144 h, application rate 200 ppm, mixed ages, 6 days after infestation, read-out: control (mortality)
Method: Thrips tabaci (Onion Thrips):
Sunflower leaf discs were placed on agar in 24-well microtiter plates and sprayed with aqueous test solutions prepared from 10′000 ppm DMSO stock solutions. After drying the leaf discs were infested with a thrips population of mixed ages. The samples were assessed for mortality 6 days after infestation.

Cn1nc(OC(F)F)c(C(F)(F)F)c1-n1cc(-c2ccc(Cl)c(C(=O)NC3(C#N)CC3)c2)cn1 [compound 1]
≥ 80%: mortality at 200 ppm (Myzus persicae [1]) | mortality at 200 ppm (Plutella xylostella) | percent effect (mortality or growth inhibition) at 200 ppm (Euschistus heros) | mortality at 200 ppm (Diabrotica balteata) | mortality at 12 ppm (Myzus persicae [2]) | percent control (mortality, anti-feedant effect or growth inhibition) at 200 ppm (Spodoptera littoralis)

Cn1nc(OCC(F)(F)F)c(C(F)(F)F)c1-n1cc(-c2ccc(Cl)c(C(=O)NC3CC3)c2)cn1 [compound 2]
≥ 80%: mortality at 200 ppm (Myzus persicae [1]) | mortality at 200 ppm (Tetranychus urticae) | mortality at 200 ppm (Plutella xylostella) | percent effect (mortality or growth inhibition) at 200 ppm (Euschistus heros) | mortality at 200 ppm (Diabrotica balteata) | mortality at 12 ppm (Myzus persicae [2]) | mortality at 200 ppm (Thrips tabaci) | percent control (mortality, anti-feedant effect or growth inhibition) at 200 ppm (Spodoptera littoralis)

Cn1nc(OCC(F)(F)F)c(C(F)(F)F)c1-n1cc(-c2ccc(Cl)c(C(=O)NC3(C#N)CC3)c2)cn1 [compound 3]
≥ 80%: mortality at 200 ppm (Myzus persicae [1]) | mortality at 200 ppm (Tetranychus urticae) | mortality at 200 ppm (Plutella xylostella) | percent effect (mortality or growth inhibition) at 200 ppm (Euschistus heros) | mortality at 200 ppm (Diabrotica balteata) | mortality at 12 ppm (Myzus persicae [2]) | mortality at 200 ppm (Thrips tabaci) | percent control (mortality, anti-feedant effect or growth inhibition) at 200 ppm (Spodoptera littoralis)

COc1nn(C)c(-n2cc(-c3ccc(Cl)c(C(=O)NC4(C#N)CC4)c3)cn2)c1C(F)(F)F [compound 5]
≥ 80%: mortality at 200 ppm (Myzus persicae [1]) | mortality at 12 ppm (Myzus persicae [2])

Cn1nc(OC(F)(F)C(F)F)c(C(F)(F)F)c1-n1cc(-c2ccc(Cl)c(C(=O)NC3(C#N)CC3)c2)cn1 [compound 11]
≥ 80%: mortality at 200 ppm (Myzus persicae [1]) | mortality at 200 ppm (Tetranychus urticae) | mortality at 200 ppm (Plutella xylostella) | percent effect (mortality or growth inhibition) at 200 ppm (Euschistus heros) | mortality at 200 ppm (Diabrotica balteata) | mortality at 12 ppm (Myzus persicae [2]) | mortality at 200 ppm (Thrips tabaci) | percent control (mortality, anti-feedant effect or growth inhibition) at 200 ppm (Spodoptera littoralis)

Cn1nc(OC(F)(F)C(F)(F)Br)c(C(F)(F)F)c1-n1cc(-c2ccc(Cl)c(C(=O)NC3(C#N)CC3)c2)cn1 [compound 12]
≥ 80%: mortality at 200 ppm (Myzus persicae [1]) | mortality at 200 ppm (Tetranychus urticae) | mortality at 200 ppm (Plutella xylostella) | percent effect (mortality or growth inhibition) at 200 ppm (Euschistus heros) | mortality at 200 ppm (Diabrotica balteata) | mortality at 12 ppm (Myzus persicae [2]) | mortality at 200 ppm (Thrips tabaci) | percent control (mortality, anti-feedant effect or growth inhibition) at 200 ppm (Spodoptera littoralis)

Cn1nc(OCC(F)F)c(C(F)(F)F)c1-n1cc(-c2ccc(Cl)c(C(=O)NC3CC3)c2)cn1 [compound 24]
≥ 80%: mortality at 200 ppm (Myzus persicae [1]) | mortality at 200 ppm (Tetranychus urticae) | mortality at 200 ppm (Plutella xylostella) | percent effect (mortality or growth inhibition) at 200 ppm (Euschistus heros) | mortality at 200 ppm (Diabrotica balteata) | mortality at 12 ppm (Myzus persicae [2]) | percent control (mortality, anti-feedant effect or growth inhibition) at 200 ppm (Spodoptera littoralis)

Cn1nc(OCCOC(F)(F)F)c(C(F)(F)F)c1-n1cc(-c2ccc(Cl)c(C(=O)NC3CC3)c2)cn1 [compound 34]
≥ 80%: mortality at 200 ppm (Myzus persicae [1]) | mortality at 200 ppm (Tetranychus urticae) | mortality at 200 ppm (Plutella xylostella) | percent effect (mortality or growth inhibition) at 200 ppm (Euschistus heros) | mortality at 200 ppm (Diabrotica balteata) | mortality at 12 ppm (Myzus persicae [2]) | percent control (mortality, anti-feedant effect or growth inhibition) at 200 ppm (Spodoptera littoralis)

Cn1nc(OC(F)(F)CBr)c(C(F)(F)F)c1-n1cc(-c2ccc(Cl)c(C(=O)NC3(C#N)CC3)c2)cn1 [compound 41]
≥ 80%: mortality at 200 ppm (Myzus persicae [1]) | mortality at 200 ppm (Tetranychus urticae) | mortality at 200 ppm (Plutella xylostella) | percent effect (mortality or growth inhibition) at 200 ppm (Euschistus heros) | mortality at 200 ppm (Diabrotica balteata) | mortality at 200 ppm (Thrips tabaci) | percent control (mortality, anti-feedant effect or growth inhibition) at 200 ppm (Spodoptera littoralis)
